Consider 1 compound from patent US20240122867A1, “CORONAL PROTEIN-COATED NANOPARTICLES AND USES THEREOF” (UNIVERSITY OF CENTRAL FLORIDA RESEARCH FOUNDATION, INC., priority 2021, published 2024).

The series concerns MDA-MB-231 cells. The experiment in a line: cells. The series is classed as cell-based, human.

`CC(=O)O[C@H]1C(=O)[C@@]2(C)[C@H]([C@H](OC(=O)c3ccccc3)[C@]3(O)C[C@H](OC(=O)[C@H](O)[C@@H](NC(=O)c4ccccc4)c4ccccc4)C(C)=C1C3(C)C)[C@]1(OC(C)=O)CO[C@@H]1C[C@@H]2O` [taxol, paclitaxel]: the IC50 (Homo sapiens, MDA-MB-231, read-out: IC50 dose) is roughly 50 nM. In addition, where the note is “free taxol, 43 μg dose, 24 h”, the “reduction of MDA-MB-231 viability” value is given as roughly 50%.
